Laboratory results: patent publication US20240158446A1, “CYCLIC COMPOUND HAVING SELECTIVE INHIBITORY ACTION ON KRAS OVER HRAS AND NRAS” (CHUGAI SEIYAKU KABUSHIKI KAISHA, priority 2021, published 2024)
Like-named read-outs stand apart in the source and are kept apart here. *1 amine or outer side, *2 acyl side, *3 side chain or, on linkers, in order; H or OH if unused. Where a SMILES comes first, the peptide text is derived from it. Bridges are numbered along the chain shown (N, C = ends). [ ]: non-standard residue; d: D form. The star is where a group is joined. hPhe(3-Cl-4-CF3) = N[C@@H](CCc1ccc(C(F)(F)F)c(Cl)c1)C(=O)O; X37 = O=C([C@H](Cc1ccc(C(F)(F)F)cc1)N(CC1CCC1)[*:1])[*:2]; NPrPhe(4-CF3) = CCCN[C@@H](Cc1ccc(C(F)(F)F)cc1)C(=O)O; NEtPhe(4-F) = CCN[C@@H](Cc1ccc(F)cc1)C(=O)O; NMeGly(cPent) = CN[C@H](C(=O)O)C1CCCC1; Pro(4,4-F2) = O=C(O)[C@@H]1CC(F)(F)CN1; Hyp = O=C(O)[C@@H]1C[C@@H](O)CN1; NMeD = CN[C@@H](CC(=O)O)C(=O)O; NMeL = CN[C@@H](CC(C)C)C(=O)O; Morpholide = C1CN(*)CCO1; NMeA = CN[C@@H](C)C(=O)O; Ac5c = NC1(C(=O)O)CCCC1; Aze = O=C(O)[C@@H]1CCN1; Ethyl(2,2-F2) = FC(F)C*; Ac4c = NC1(C(=O)O)CCC1; NEtG = CCNCC(=O)O; Sar = CNCC(=O)O

Key:
[1] = molecular target: GDP-bound NRAS wild-type protein (Homo sapiens, UniProt P01111); test: Binding to NRAS by surface plasmon resonance (SPR), Single Cycle Kinetics; conditions: SPR, GDP-bound NRAS wild-type protein vs GDP-bound KRAS wild-type protein
GDP-bound NRAS wild-type protein, sequence (P01111 whole entry): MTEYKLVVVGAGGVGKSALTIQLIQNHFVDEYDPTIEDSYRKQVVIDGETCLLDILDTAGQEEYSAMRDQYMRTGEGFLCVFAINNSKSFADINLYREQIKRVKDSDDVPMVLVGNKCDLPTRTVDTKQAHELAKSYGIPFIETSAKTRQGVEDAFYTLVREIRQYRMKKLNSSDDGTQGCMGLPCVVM

[2] = molecular target: GDP-bound HRAS wild-type protein (Homo sapiens, UniProt P01112); test: Binding to HRAS by surface plasmon resonance (SPR), Single Cycle Kinetics; conditions: SPR, GDP-bound HRAS wild-type protein vs GDP-bound KRAS wild-type protein
GDP-bound HRAS wild-type protein, sequence (P01112 whole entry): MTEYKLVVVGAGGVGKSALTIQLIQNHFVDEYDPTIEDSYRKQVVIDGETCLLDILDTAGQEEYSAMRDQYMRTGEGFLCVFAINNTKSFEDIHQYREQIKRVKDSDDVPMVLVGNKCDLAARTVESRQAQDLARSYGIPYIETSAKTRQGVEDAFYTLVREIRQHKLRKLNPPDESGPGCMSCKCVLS

[3] = molecular target: GDP-bound KRAS wild-type protein (Homo sapiens, UniProt P01116); test: Binding to KRAS by surface plasmon resonance (SPR), Single Cycle Kinetics; conditions: GDP-bound KRAS wild-type protein, read-out: KRAS KD
GDP-bound KRAS wild-type protein, sequence (P01116 whole entry): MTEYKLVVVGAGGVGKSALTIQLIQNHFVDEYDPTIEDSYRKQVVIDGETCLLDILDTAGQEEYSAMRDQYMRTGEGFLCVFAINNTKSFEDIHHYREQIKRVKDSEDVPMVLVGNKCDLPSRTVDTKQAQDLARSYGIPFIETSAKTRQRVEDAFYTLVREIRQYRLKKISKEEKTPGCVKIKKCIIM

[4] = SPR Single Cycle Kinetics, 1:1 binding model

CCCN1C(=O)CN(C)C(=O)[C@@H]2CCN2C(=O)[C@H]([C@@H](C)CC)NC(=O)[C@H](CC(C)C)N(C)C(=O)C[C@@H](C(=O)N2CCOCC2)NC(=O)[C@H](C2CCCC2)N(C)C(=O)C2(CCCC2)NC(=O)[C@@H]2CC(F)(F)CN2C(=O)[C@H](CCc2ccc(C(F)(F)F)c(Cl)c2)NC(=O)CN(C)C(=O)[C@@H]1Cc1ccc(C(F)(F)F)cc1 [PP0339] ([NMeL]I[Aze][Sar][NPrPhe(4-CF3)][Sar][hPhe(3-Cl-4-CF3)][Pro(4,4-F2)][Ac5c][NMeGly(cPent)]D-Morpholide; lactam N-11)
NRAS/KRAS (ratio of KD value for NRAS to KD value for KRAS) [1]: B (a compound having 3 or more and less than 10 is denoted as B)
HRAS/KRAS (ratio of KD value for HRAS to KD value for KRAS) [2]: B (a compound having 3 or more and less than 10 is denoted as B)
Kd [3, 4]: 5 nM

CC[C@H](C)[C@@H]1NC(=O)[C@H](CC(C)C)N(C)C(=O)C[C@@H](C(=O)N2CCOCC2)N(C)C(=O)[C@H](C2CCCC2)N(C)C(=O)C2(CCCC2)NC(=O)[C@@H]2CCCN2C(=O)[C@H](CCc2ccc(C(F)(F)F)c(Cl)c2)NC(=O)CN(C)C(=O)[C@H](Cc2ccc(C(F)(F)F)cc2)N2CC=CC[C@@H](C2=O)N(C)C(=O)CN(C)C1=O [PP0462]
NRAS/KRAS (ratio of KD value with respect to NRAS to KD value with respect to KRAS) [1]: C (A compound having a KD ratio of 0.1 or more and less than 3 is denoted as C)
HRAS/KRAS (ratio of KD value with respect to HRAS to KD value with respect to KRAS) [2]: C (A compound having a KD ratio of 0.1 or more and less than 3 is denoted as C)
Kd [3, 4]: 0.32 nM

CC[C@H](C)[C@@H]1NC(=O)[C@H](CC(C)C)N(C)C(=O)C[C@@H](C(=O)N2CCOCC2)N(C)C(=O)[C@H](C2CCCC2)N(C)C(=O)C2(CCCC2)NC(=O)[C@@H]2CCCN2C(=O)[C@H](CCc2ccc(C(F)(F)F)c(Cl)c2)NC(=O)CN(C)C(=O)[C@H](Cc2ccc(C(F)(F)F)cc2)N(CC2CCC2)C(=O)[C@@H]2CCN2C(=O)[C@H](C)N(C)C1=O [PP0109] ([NMeL]I[NMeA][Aze][X37][Sar][hPhe(3-Cl-4-CF3)]P[Ac5c][NMeGly(cPent)][NMeD]-Morpholide; lactam N-11)
NRAS/KRAS (ratio of KD value for NRAS to KD value for KRAS) [1]: C (A compound having a KD ratio of 0.1 or more and less than 3 is denoted as C)
HRAS/KRAS (ratio of KD value for HRAS to KD value for KRAS) [2]: B (a compound having 3 or more and less than 10 is denoted as B)
Kd [3, 4]: 1.3 nM

CCCN1C(=O)CN(C)C(=O)CNC(=O)[C@H]([C@@H](C)CC)NC(=O)[C@H](CC(C)C)N(C)C(=O)C[C@@H](C(=O)N2CCOCC2)N(C)C(=O)[C@H](C2CCCC2)N(C)C(=O)C2(CCCC2)NC(=O)[C@@H]2C[C@@H](OCC)CN2C(=O)[C@H](CCc2ccc(C(F)(F)F)c(Cl)c2)NC(=O)CN(C)C(=O)[C@@H]1Cc1ccc(C(F)(F)F)cc1 [PP0396] ([NMeL]IG[Sar][NPrPhe(4-CF3)][Sar][hPhe(3-Cl-4-CF3)][Hyp](Et)[Ac5c][NMeGly(cPent)][NMeD]-Morpholide; lactam N-11)
NRAS/KRAS (ratio of KD value for NRAS to KD value for KRAS) [1]: B (a compound having 3 or more and less than 10 is denoted as B)
HRAS/KRAS (ratio of KD value for HRAS to KD value for KRAS) [2]: C (A compound having a KD ratio of 0.1 or more and less than 3 is denoted as C)
Kd [3, 4]: 0.13 nM

CCO[C@@H]1C[C@H]2C(=O)NC3(CCC3)C(=O)N(C)[C@@H](C3CCCC3)C(=O)N(CC)[C@H](C(=O)N3CCOCC3)CC(=O)N(C)[C@@H](CC)C(=O)N[C@@H]([C@@H](C)CC)C(=O)N(C)CC(=O)N(C)[C@H]3CCCCCN(C3=O)[C@@H](Cc3ccc(C(F)(F)F)cc3)C(=O)N(C)CC(=O)N[C@@H](CCc3cc(F)c(C(F)(F)F)c(F)c3)C(=O)N2C1 [PP0944]
NRAS/KRAS (ratio of KD value for NRAS to KD value for KRAS) [1]: A (a compound having 10 or more and less than 20 is denoted as A)
HRAS/KRAS (ratio of KD value for HRAS to KD value for KRAS) [2]: A (a compound having 10 or more and less than 20 is denoted as A)
Kd ([3]; SPR, Single Cycle Kinetics): 3.9 nM

CC[C@H](C)[C@@H]1NC(=O)[C@H](CC(C)C)N(C)C(=O)C[C@@H](C(=O)N2CCOCC2)N(CC)C(=O)[C@H](C2CCCC2)N(C)C(=O)C2(CCC2)NC(=O)[C@@H]2[C@H](O)CCN2C(=O)[C@H](CCc2cc(F)c(C(F)(F)F)c(F)c2)NC(=O)CN(C)C(=O)[C@H](Cc2ccc(C(F)(F)F)cc2)N2CCCCC[C@@H](C2=O)N(C)C(=O)CN(C)C1=O [PP0955]
NRAS/KRAS (ratio of KD value for NRAS to KD value for KRAS) [1]: A (a compound having 10 or more and less than 20 is denoted as A)
HRAS/KRAS (ratio of KD value for HRAS to KD value for KRAS) [2]: A (a compound having 10 or more and less than 20 is denoted as A)
Kd ([3]; SPR, Single Cycle Kinetics): 19 nM

CCO[C@@H]1C[C@H]2C(=O)NC3(CCC3)C(=O)N(C)[C@@H](C3CCCC3)C(=O)N(C)[C@H](C(=O)N(C)C)CC(=O)N(C)[C@@H](CC)C(=O)N[C@@H]([C@@H](C)CC)C(=O)NCC(=O)N(C)[C@H]3C/C=C\CCN(C3=O)[C@@H](Cc3ccc(C(F)(F)F)cc3)C(=O)N(C)CC(=O)N[C@@H](CCc3cc(F)c(C(F)(F)F)c(F)c3)C(=O)N2C1 [PP0983, (2S,8S,12R,14S,20S,23S,27S,30S,36S,38Z)-20-cyclopentyl-8-[2-[3,5-difluoro-4-(trifluoromethyl)phenyl]ethyl]-12-ethoxy-27-ethyl-N,N,4,19,22,26,35-heptamethyl-30-[(1S)-1-methylpropyl]-3,6,9,15,18,21,25,28,31,34,42-undecaoxo-2-[[4-(trifluoromethyl)phenyl]methyl]spiro[1,4,7,10,16,19,22,26,29,32,35-undecazatricyclo[34.5.1.0^10,14]dotetracont-38-ene-17,1′-cyclobutane]-23-carboxamide]
NRAS/KRAS (ratio of KD value for NRAS to KD value for KRAS) [1]: A (a compound having 10 or more and less than 20 is denoted as A)
HRAS/KRAS (ratio of KD value for HRAS to KD value for KRAS) [2]: A (a compound having 10 or more and less than 20 is denoted as A)
Kd ([3]; SPR, Single Cycle Kinetics): 0.078 nM

CCCN1C(=O)CN(C)C(=O)CN(C)C(=O)[C@H]([C@@H](C)CC)NC(=O)[C@H](CC(C)C)N(C)C(=O)C[C@@H](C(=O)N2CCOCC2)N(C)C(=O)[C@H](C2CCCC2)N(C)C(=O)C2(CCCC2)NC(=O)[C@@H]2C[C@@H](OCC(F)F)CN2C(=O)[C@H](CCc2ccc(C(F)(F)F)c(Cl)c2)NC(=O)CN(C)C(=O)[C@@H]1Cc1ccc(C(F)(F)F)cc1 [PP0246] ([NMeL]I[Sar][Sar][NPrPhe(4-CF3)][Sar][hPhe(3-Cl-4-CF3)][Hyp](Ethyl(2,2-F2))[Ac5c][NMeGly(cPent)][NMeD]-Morpholide; lactam N-11)
NRAS/KRAS (ratio of KD value for NRAS to KD value for KRAS) [1]: B (a compound having 3 or more and less than 10 is denoted as B)
HRAS/KRAS (ratio of KD value for HRAS to KD value for KRAS) [2]: C (A compound having a KD ratio of 0.1 or more and less than 3 is denoted as C)
Kd [3, 4]: 0.054 nM

CCO[C@@H]1C[C@H]2C(=O)NC3(CCC3)C(=O)N(C)[C@@H](CC(F)F)C(=O)N(C)[C@H](C(=O)N3CCOCC3)CC(=O)N(C)[C@@H](CC(C)C)C(=O)N[C@@H]([C@@H](C)CC)C(=O)N(C)CC(=O)N(C)[C@H]3CCCCN(C3=O)[C@@H](Cc3ccc(C(F)(F)F)cc3)C(=O)N(C)CC(=O)N[C@@H](CCc3cc(F)c(C(F)(F)F)c(F)c3)C(=O)N2C1 [PP0813]
NRAS/KRAS (ratio of KD value for NRAS to KD value for KRAS) [1]: C (A compound having a KD ratio of 0.1 or more and less than 3 is denoted as C)
HRAS/KRAS (ratio of KD value for HRAS to KD value for KRAS) [2]: B (a compound having 3 or more and less than 10 is denoted as B)
Kd ([3]; SPR, Single Cycle Kinetics): 0.4 nM

CC[C@H](C)[C@@H]1NC(=O)[C@H](CC(C)C)N(C)C(=O)C[C@@H](C(=O)N2CCOCC2)N(C)C(=O)[C@H](C2CCCC2)N(C)C(=O)C2(CCCC2)NC(=O)[C@@H]2CCCN2C(=O)[C@H](CCc2ccc(C(F)(F)F)c(Cl)c2)NC(=O)CN(C)C(=O)[C@H](Cc2ccc(F)cc2)N(CC)C(=O)CN(C)C(=O)CN(C)C1=O [PP0213] ([NMeL]I[Sar][Sar][NEtPhe(4-F)][Sar][hPhe(3-Cl-4-CF3)]P[Ac5c][NMeGly(cPent)][NMeD]-Morpholide; lactam N-11)
NRAS/KRAS (ratio of KD value for NRAS to KD value for KRAS) [1]: C (A compound having a KD ratio of 0.1 or more and less than 3 is denoted as C)
HRAS/KRAS (ratio of KD value for HRAS to KD value for KRAS) [2]: C (A compound having a KD ratio of 0.1 or more and less than 3 is denoted as C)
Kd [3, 4]: 0.25 nM

C=CC[C@H]1C(=O)N[C@@H]([C@@H](C)CC)C(=O)N(C)CC(=O)N(C)[C@H]2CCCCCN(C2=O)[C@@H](Cc2ccc(C(F)(F)F)cc2)C(=O)N(C)CC(=O)N[C@@H](CCc2cc(F)c(C(F)(F)F)c(F)c2)C(=O)N2C[C@H](OCC)C[C@H]2C(=O)N[C@](C)(CC=C)C(=O)N(C)[C@@H](C2CCCC2)C(=O)N(C)[C@H](C(=O)N2CCOCC2)CC(=O)N1C [PP0878]
NRAS/KRAS (ratio of KD value for NRAS to KD value for KRAS) [1]: B (a compound having 3 or more and less than 10 is denoted as B)
HRAS/KRAS (ratio of KD value for HRAS to KD value for KRAS) [2]: B (a compound having 3 or more and less than 10 is denoted as B)
Kd ([3]; SPR, Single Cycle Kinetics): 3.2 nM

CCCN1C(=O)CN(C)C(=O)CN(CC)C(=O)[C@H]([C@@H](C)CC)NC(=O)[C@H](CC(C)C)N(C)C(=O)C[C@@H](C(=O)N2CCOCC2)NC(=O)[C@H](C2CCCC2)N(C)C(=O)C2(CCC2)NC(=O)[C@@H]2CC(F)(F)CN2C(=O)[C@H](CCc2ccc(C(F)(F)F)c(Cl)c2)NC(=O)CN(C)C(=O)[C@@H]1Cc1ccc(C(F)(F)F)cc1 [PP0334] ([NMeL]I[NEtG][Sar][NPrPhe(4-CF3)][Sar][hPhe(3-Cl-4-CF3)][Pro(4,4-F2)][Ac4c][NMeGly(cPent)]D-Morpholide; lactam N-11)
NRAS/KRAS (ratio of KD value for NRAS to KD value for KRAS) [1]: B (a compound having 3 or more and less than 10 is denoted as B)
HRAS/KRAS (ratio of KD value for HRAS to KD value for KRAS) [2]: C (A compound having a KD ratio of 0.1 or more and less than 3 is denoted as C)
Kd [3, 4]: 4.7 nM
